Counter-ions that a name gives are not always drawn. Like-named read-outs stand apart in the source and are kept apart here.

Broadly, the IC50 is the concentration that inhibits the measured activity by half. One may read the AC50 as the concentration at which the activity in the assay is half-maximal.

Common to all, as to format: cell-based, human
Assay [1] relates to HTT mRNA. The assay can be described thus: Splicing RT-qPCR gene panel, HTT canonical junction (CJ) mRNA. To be noted: Homo sapiens, Tables 4A/4B, read-out: HTT (IC50, decrease in CJ mRNA, gene panel). In outline:
(§1)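 Canonical-junction mRNA levels were quantified by RT-qPCR in lysates, using ΔΔCt against a housekeeping gene (GAPDH, GUSB or PPIA) and DMSO wells, expressed as percentage response. Cells (A673 or K562) had been exposed for 24 h at 37° C. to 11 three-fold compound concentrations up to 10 uM, DMSO ≤0.25%.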

In assay [2] the test system is Target C mRNA. In words: Splicing RT-qPCR gene panel, Target C canonical junction (CJ) mRNA. As to conditions: Homo sapiens, Tables 4A/4B, read-out: Target C (IC50, decrease in CJ mRNA, gene panel). An outline of the steps:
as §1

Assay [3] has as its system MYB mRNA. The assay can be described thus: Splicing RT-qPCR assay, MYB canonical (CJ) and alternative (AJ) junction mRNA. As to conditions: Homo sapiens; for AC50: read-out: MYB AJ (AC50, increase in alternative junction mRNA). In outline:
(§2)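 Compound-induced exon inclusion is tracked as an increase in AJ transcript alongside the CJ transcript. Cells (A673 normalized to PPIA; K562 to GAPDH or GUSB) are dosed 24 h with a serial dilution topping at 10 uM, ≤0.25% DMSO, then lysed and analysed by RT-qPCR in at least duplicate.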
A general note: Quantitative PCR measures a nucleic acid by following its amplification.

The test system of assay [4] is SMN2 mRNA. In words: Splicing RT-qPCR gene panel, SMN2 canonical junction (CJ) mRNA. As to conditions: Homo sapiens, Tables 4A/4B, read-out: SMN2 (IC50, decrease in CJ mRNA, gene panel). An outline of the steps:
as §1

In assay [5] the test system is HTT mRNA. In words: Splicing RT-qPCR assay, HTT canonical (CJ) and alternative (AJ) junction mRNA. To be noted: Homo sapiens, A673 or K562 cells, 24 hours compound treatment; for IC50: 24 h, read-out: HTT CJ (IC50, decrease in canonical junction mRNA); for AC50: read-out: HTT AJ (AC50, increase in alternative junction mRNA). An outline of the steps: as §2
Setting [6] is: 24 h, A673 or K562 cells, 24 hours compound treatment, RT-qPCR.
[7] abbreviates: 24 h, A673 or K562 cells, 24 hours compound treatment, RT-qPCR, read-out: MYB CJ (IC50, decrease in canonical junction mRNA).
Setting [8] is: Tables 4A/4B, canonical junction qPCR panel, read-out: MYB (IC50, decrease in CJ mRNA, gene panel).

`Cc1cn2cc(NC(=O)c3ccc(N4CCNCC4)c4cn(C(C)C)nc34)cc(F)c2n1` [Compound 290, N-{8-fluoro-2-methylimidazo[1,2-a]pyridin-6-yl}-2-isopropyl-4-(piperazin-1-yl)indazole-7-carboxamide]: the IC50 in assay [1] is greater than 10000 nM; in assay [2], greater than 10000 nM; in assay [3] (setting [7]) it was 100 to 1000 nM; in assay [3] (setting [8]), 100 to 1000 nM; in assay [4], less than 100 nM; in assay [5] it was greater than 10000 nM. In addition, the AC50 in assay [3] (setting [6]) is 100 to 1000 nM; in assay [5], greater than 10000 nM.

With `Cc1cn2cc(NC(=O)c3ccc(N4CCNCC4)c4cn(CCO)nc34)cc(F)c2n1` [Compound 291, N-{8-fluoro-2-methylimidazo[1,2-a]pyridin-6-yl}-2-(2-hydroxyethyl)-4-(piperazin-1-yl)indazole-7-carboxamide hydrochloride], the concentration for half-maximal inhibition (IC50) in assay [1] was 1000 to 10000 nM; in assay [2], 1000 to 10000 nM; in assay [3] (setting [7]), 100 to 1000 nM; in assay [3] (setting [8]), 100 to 1000 nM; in assay [4], less than 100 nM; in assay [5] it was 1000 to 10000 nM. The AC50 lay within 100 to 1000 nM in assay [3] (setting [6]) and 1000 to 10000 nM in assay [5].

`COCCn1cc2c(N3CCNCC3)ccc(C(=O)Nc3cc(F)c4nc(C)cn4c3)c2n1` [Compound 292, N-{8-fluoro-2-methylimidazo[1,2-a]pyridin-6-yl}-2-(2-methoxyethyl)-4-(piperazin-1-yl)indazole-7-carboxamide hydrochloride]: the IC50 in assay [1] is 1000 to 10000 nM; in assay [2], 1000 to 10000 nM; in assay [3] (setting [7]) it was less than 100 nM; in assay [3] (setting [8]) it was less than 100 nM; in assay [4], less than 100 nM; in assay [5] it was 1000 to 10000 nM. Moreover, the AC50 is less than 100 nM in assay [3] (setting [6]) and 1000 to 10000 nM in assay [5].

For `Cc1cn2cc(NC(=O)c3ccc(N4CCNCC4)c4cn(C)nc34)nc(C)c2n1` [Compound 293, N-{2,8-dimethylimidazo[1,2-a]pyrazin-6-yl}-2-methyl-4-(piperazin-1-yl)indazole-7-carboxamide], the IC50 in assay [1] was 1000 to 10000 nM; in assay [2], greater than 10000 nM; in assay [3] (setting [7]) it was less than 100 nM; in assay [3] (setting [8]) it was less than 100 nM; in assay [4], less than 100 nM; in assay [5] it was 1000 to 10000 nM. The half-maximal activity concentration (AC50) in assay [3] (setting [6]) was less than 100 nM; in assay [5] it was 100 to 1000 nM.

Turning to `Cc1cn2cc(NC(=O)c3ccc(N4CCNCC4)c4cn(C5CC5)nc34)cc(F)c2n1` [Compound 294, 2-cyclopropyl-N-{8-fluoro-2-methylimidazo[1,2-a]pyridin-6-yl}-4-(piperazin-1-yl) indazole-7-carboxamide], the IC50 was 100 to 1000 nM in assay [1]; greater than 10000 nM in assay [2]; less than 100 nM in assay [3] (setting [7]); less than 100 nM in assay [3] (setting [8]); less than 100 nM in assay [4]; 100 to 1000 nM in assay [5]. Besides, the figures for the AC50 in assay [3] (setting [6]) and in assay [5] were less than 100 nM and 1000 to 10000 nM, respectively.

Consider `Cc1cn2cc(NC(=O)c3ccc(N4CCNCC4)c4cn(C5COC5)nc34)cc(F)c2n1` [Compound 295, N-{8-fluoro-2-methylimidazo[1,2-a]pyridin-6-yl}-2-(oxetan-3-yl)-4-(piperazin-1-yl)indazole-7-carboxamide], for which the IC50 was greater than 10000 nM in assay [1]; greater than 10000 nM in assay [2]; 100 to 1000 nM in assay [3] (setting [7]); 100 to 1000 nM in assay [3] (setting [8]); less than 100 nM in assay [4]; greater than 10000 nM in assay [5]. The AC50 in assay [3] (setting [6]) fell in the range of 100 to 1000 nM; in assay [5] it was 1000 to 10000 nM.

`Cc1cn2cc(NC(=O)c3ccc(N4CCC(NC5CC5)C4)c4cn(C)nc34)cc(F)c2n1` (stereo not drawn) [Compound 296, 4-[3-(cyclopropylamino)pyrrolidin-1-yl]-N-{8-fluoro-2-methylimidazo[1,2-a]pyridin-6-yl}-2-methylindazole-7-carboxamide]: the IC50 was greater than 10000 nM in assay [1]; greater than 10000 nM in assay [2]; less than 100 nM in assay [3] (setting [7]); less than 100 nM in assay [3] (setting [8]); less than 100 nM in assay [4]; greater than 10000 nM in assay [5]. For the same compound, the concentration at half-maximal activity (AC50) in assay [3] (setting [6]) was less than 100 nM; in assay [5], greater than 10000 nM.

Consider `Cc1cn2cc(NC(=O)c3ccc(N4CCNCC4)c4c(C)n(C)nc34)cc(F)c2n1` [Compound 297], for which the IC50 in assay [1] fell in the range of 1000 to 10000 nM; in assay [2] it was 1000 to 10000 nM; in assay [3] (setting [7]), 1000 to 10000 nM; in assay [3] (setting [8]), 1000 to 10000 nM; in assay [4] it was 100 to 1000 nM; in assay [5] it was 1000 to 10000 nM. Further, the AC50 in assay [3] (setting [6]) and in assay [5] was 1000 to 10000 nM in each case.

Consider `CNC1CCN(c2ccc(C(=O)Nc3cc(F)c4nc(C)cn4c3)c3nn(C)cc23)C1` (stereo not drawn) [Compound 298, N-{8-fluoro-2-methylimidazo[1,2-a]pyridin-6-yl}-2-methyl-4-[3-(methylamino)pyrrolidin-1-yl]indazole-7-carboxamide trifluoroacetic acid salt], for which the IC50 in assay [1] is 1000 to 10000 nM; in assay [2], 1000 to 10000 nM; in assay [3] (setting [7]), less than 100 nM; in assay [3] (setting [8]), less than 100 nM; in assay [4], less than 100 nM; in assay [5], 1000 to 10000 nM. Further, the AC50 was 100 to 1000 nM in assay [3] (setting [6]) and 1000 to 10000 nM in assay [5].

Consider `Cc1cn2cc(NC(=O)c3ccc(N4CCC5(CCN5)C4)c4cn(C)nc34)cc(F)c2n1` (stereo not drawn) [Compound 299, 4-{1,6-diazaspiro[3.4]octan-6-yl}-N-{8-fluoro-2-methylimidazo[1,2-a]pyridin-6-yl}-2-methylindazole-7-carboxamide], for which the IC50 in assay [1] is greater than 10000 nM; in assay [2], greater than 10000 nM; in assay [3] (setting [7]) it was 100 to 1000 nM; in assay [3] (setting [8]), 100 to 1000 nM; in assay [4] it was less than 100 nM; in assay [5], greater than 10000 nM. Besides, the values for the AC50 in assay [3] (setting [6]) and in assay [5] were 100 to 1000 nM and greater than 10000 nM, respectively.

Take `Cc1cn2cc(NC(=O)c3cc(C)c(N4CCNCC4)c4cn(C)nc34)cc(F)c2n1` [Compound 300]: the IC50 was greater than 10000 nM in assay [1]; greater than 10000 nM in assay [2]; 1000 to 10000 nM in assay [3] (setting [7]); 1000 to 10000 nM in assay [3] (setting [8]); 100 to 1000 nM in assay [4]; greater than 10000 nM in assay [5]. Also, the AC50 was 100 to 1000 nM in assay [3] (setting [6]) and greater than 10000 nM in assay [5].

Turning to `Cc1cn2cc(NC(=O)c3ccc(N4CCC5(CCN5)CC4)c4cn(C)nc34)cc(F)c2n1` [Compound 301, 4-{1,7-diazaspiro[3.5]nonan-7-yl}-N-{8-fluoro-2-methylimidazo[1,2-a]pyridin-6-yl}-2-methylindazole-7-carboxamide trifluoroacetic acid salt], the IC50 in assay [1] is 100 to 1000 nM; in assay [2], 1000 to 10000 nM; in assay [3] (setting [7]), less than 100 nM; in assay [3] (setting [8]) it was less than 100 nM; in assay [4], less than 100 nM; in assay [5] it was 100 to 1000 nM. Further, the AC50 is less than 100 nM in assay [3] (setting [6]) and 100 to 1000 nM in assay [5].

On to `COCCCn1cc2c(N3CCNCC3)ccc(C(=O)Nc3cc(F)c4nc(C)cn4c3)c2n1` [Compound 302, N-{8-fluoro-2-methylimidazo[1,2-a]pyridin-6-yl}-2-(3-methoxypropyl)-4-(piperazin-1-yl)indazole-7-carboxamide], for which the IC50 in assay [1] was 1000 to 10000 nM; in assay [2] it was greater than 10000 nM; in assay [3] (setting [7]) it was less than 100 nM; in assay [3] (setting [8]), less than 100 nM; in assay [4], less than 100 nM; in assay [5] it was 1000 to 10000 nM. Moreover, the results for the AC50 in assay [3] (setting [6]) and in assay [5] were less than 100 nM and 1000 to 10000 nM, respectively.

Consider `Cc1cn2cc(NC(=O)c3cc(F)c(N4CCNCC4)c4cn(C)nc34)cc(F)c2n1` [Compound 303, 5-fluoro-N-{8-fluoro-2-methylimidazo[1,2-a]pyridin-6-yl}-2-methyl-4-(piperazin-1-yl)indazole-7-carboxamide], for which the IC50 in assay [1] is 1000 to 10000 nM; in assay [2], greater than 10000 nM; in assay [3] (setting [7]), 100 to 1000 nM; in assay [3] (setting [8]) it was 100 to 1000 nM; in assay [4] it was less than 100 nM; in assay [5], 1000 to 10000 nM. For the same compound, the values for the AC50 in assay [3] (setting [6]) and in assay [5] were 100 to 1000 nM and 1000 to 10000 nM, respectively.

For the compound `Cc1cn2cc(NC(=O)c3ccc(N4CCNCC4)c4cn(C5CCOCC5)nc34)cc(F)c2n1` [Compound 304, N-{8-fluoro-2-methylimidazo[1,2-a]pyridin-6-yl}-2-(oxan-4-yl)-4-(piperazin-1-yl) indazole-7-carboxamide trifluoroacetic acid salt], the 50% inhibitory concentration (IC50) in assay [1] is 1000 to 10000 nM; in assay [2], greater than 10000 nM; in assay [3] (setting [7]) it was 100 to 1000 nM; in assay [3] (setting [8]), 100 to 1000 nM; in assay [4] it was less than 100 nM; in assay [5], 1000 to 10000 nM. Moreover, the AC50 in assay [3] (setting [6]) was 100 to 1000 nM; in assay [5], greater than 10000 nM.

These data come from US20250154169A1, “COMPOUNDS AND METHODS FOR MODULATING SPLICING” (REMIX THERAPEUTICS INC., priority 2021, published 2025).
